According to patent publication US4767770A, “Method of inhibiting aromatase” (Eli Lilly and Company, priority 1984, dated 1988):
Read-outs that look alike come from different tables or passages of the source.

What was measured:
aromatase = target: T1, aromatase (Rattus norvegicus, UniProt P22443); experiment: biochemical
T1 sequence (P22443 1-508): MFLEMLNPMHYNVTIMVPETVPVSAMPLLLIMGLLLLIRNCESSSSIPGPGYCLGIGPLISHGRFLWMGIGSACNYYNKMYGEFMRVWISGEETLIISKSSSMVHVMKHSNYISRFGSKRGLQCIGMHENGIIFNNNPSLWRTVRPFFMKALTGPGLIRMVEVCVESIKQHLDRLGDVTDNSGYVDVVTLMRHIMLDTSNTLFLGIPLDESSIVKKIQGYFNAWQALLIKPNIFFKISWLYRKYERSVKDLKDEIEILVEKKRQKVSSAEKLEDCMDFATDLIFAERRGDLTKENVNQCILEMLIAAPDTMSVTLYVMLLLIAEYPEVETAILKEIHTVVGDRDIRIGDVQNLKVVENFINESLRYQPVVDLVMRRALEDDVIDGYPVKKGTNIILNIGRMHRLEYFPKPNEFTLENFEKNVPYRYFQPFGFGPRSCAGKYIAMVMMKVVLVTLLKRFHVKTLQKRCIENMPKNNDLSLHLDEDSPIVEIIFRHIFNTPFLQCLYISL
Method: In this test system, ovarian microsomes are obtained from rats treated with pregnant mares serum gonadotropin. Test compounds are added to reaction vials containing 0.1 μM 4-androstene-3,17-dione, 100,000 dpm 1,2[^3 H]-androstenedione, the microsomes and a NADPH generating system. The concentrations of the inhibitors tested ranged between 0.005 and 10 μM.

[1] = test system: estrogen synthesis (ovarian estradiol, estrone, estriol); experiment: Estrogen Synthesis Inhibition in Rats: ovarian steroid concentration after [3H]-testosterone; type: in vivo, immature female Wistar rats; conditions: 7 days
Method: Test compounds were administered for seven days as a component of the diet. Control animals received diet without the test compound. Beginning on the fourth day of the test, all animals treated with the test compound and one half of the control animals were given a subcutaneous injection of 1.0 mg of testosterone propionate in corn oil. The remaining control animals received only an equivalent volume of corn oil.
The ovarian steroids were extracted with 1.5 ml of 9:1 (v/v) toluene/ethanol to which had been added 25 to 100 mcg each of unlabelled estradiol, estriol, and estrone, and approximately 1000 dpm of [^14 C]-estradiol. The samples were vortexed, centrifuged at 500×g for 10 minutes, and the organic phase was transferred to a conical vial. Two additional extractions were performed on the residue in the same way. The pooled organic extracts were evaporated for subsequent thin-layer chromatography.
Ovarian proteins were precipitated by the addition of 5.0 ml of ethanol to the remaining aqueous phase. After an overnight incubation at 4° C., the samples were centrifuged at 1500×g for 10 minutes. The supernatant was discarded and the pellet was dissolved in 0.3N potassium hydroxide.
The organic residue from each above extraction was redissolved in 9:1 (v/v) dichloromethane/methanol. The solution of each sample was applied to separate silica gel thin layer chromatography plates which contained a fluorescent indicator. The plates were developed in the first dimension with 160:38:1.5:0.5 (v/v/v/v) dichloromethane/ethyl acetate/methanol/acetic acid to within 3 cm of the top of the plate. After air-drying, the plate was developed in the second dimension with 180:19:1 (v/v/v) dichloromethane/methanol/ammonium hydroxide.
The spots were scraped from the plate using a glass wool plugged Pasteur pipet attached to a vacuum line. The steroids were eluted directly into scintillation vials by the addition of 0.2 ml of dichloromethane followed by two washes each of 2.0 ml of methanol. The organic solvent was evaporated and 10.0 ml of scintillation fluid (Beckman Ready Solv-NA) was added to the vials. Samples were analyzed by liquid scintillation spectrometry. Corrections were made based on the recoveries of the [^14 C]-steroid. Steroid concentrations are expressed as femtomoles per milligram protein.

[2] = test system: estrogen synthesis (aromatization); uterus; experiment: Estrogen Synthesis Inhibition in Rats: uterine weight of testosterone propionate-treated immature rats; type: in vivo, immature female Wistar rats; conditions: 7 days
Method: Immature female Wistar rats (45-55 grams) were divided into control and test groups of 2-8 animals each. Test compounds were administered for seven days as a component of the diet. Control animals received diet without the test compound. Beginning on the fourth day of the test, all animals treated with the test compound and one half of the control animals were given a subcutaneous injection of 1.0 mg of testosterone propionate in corn oil. The remaining control animals received only an equivalent volume of corn oil. On the seventh day of the test, rats treated with testosterone propionate were injected subcutaneously with 100 μCi of [^3 H]-testosterone in 50 μl of 3:1 (v/v) saline-ethanol.
After two hours, the animals were killed by decapitation. Uteri were isolated, trimmed of extraneous connective tissue, and weighed. […] In the control animals treated with testosterone propionate, estrogens produced by aromatization stimulated the uterus resulting in an increase in weight.
*ppm in feed. 300 ppm corresponds to approximately 30 mg/kg/day; 200 ppm
corresponds to approximately 20 mg/kg/day; 30 ppm corresponds to
approximately 3 mg/kg/day.

[3] = rat ovarian microsomes, substrate (androstenedione) 0.1 μM
[4] = Test IV, 200 ppm in feed (approx. 20 mg/kg/day), testosterone-treated control 0.14
[5] = Test IV, 200 ppm in feed (approx. 20 mg/kg/day), testosterone-treated control 0.24
[6] = Test IV, 200 ppm in feed (approx. 20 mg/kg/day), testosterone-treated control 1.98
[7] = Test IV, 200 ppm in feed (approx. 20 mg/kg/day), testosterone-treated control 213.5

Clc1ccc(CN(Cc2cccnc2)C2=NCCS2)c(Cl)c1 [N--(4,5-dihydro-2-thiazolyl)-N--(2,4-dichlorobenzyl)-3-pyridinemethanamine]
EC50 (aromatase): 118 nM

Brc1ccc(N(Cc2cccnc2)C2=NCCS2)cc1 [N--(4,5-dihydro-2-thiazolyl)-N--(4-bromophenyl)-3-pyridinemethanamine]
EC50 (aromatase): 110 nM

CC(c1ccc(F)cc1)N(C1=NCCS1)C(C)c1cccnc1 (stereo not drawn) [N--(4,5-dihydro-2-thiazolyl)-N--[1-(4-fluorophenyl)ethyl]-α-methyl-3-pyridinemethanamine]
EC50 (aromatase): 3300 nM

Clc1ccc(CCN(Cc2cccnc2)C2=NCCS2)cc1 [N--(4,5-dihydro-2-thiazolyl)-N--[2-(4-chlorophenyl)ethyl]-3-pyridinemethanamine]
EC50 (aromatase; [3]): 900 nM

CSc1ccc(N(Cc2cccnc2)C2=NCCS2)cc1 [N--(4,5-dihydro-2-thiazolyl)-N--[4-(methylthio)phenyl]-3-pyridinemethanamine]
EC50 (aromatase; [3]): 3200 nM

c1ccc(N(Cc2cccnc2)C2=NCCS2)cc1 [N--(4,5-dihydro-2-thiazolyl)-N--phenyl-3-pyridinemethanamine]
EC50 (aromatase): 460 nM

Cc1cc(Cl)ccc1N(Cc1cccnc1)C1=NCCS1 [N--(4-chloro-2-methylphenyl)-N--(4,5-dihydro-2-thiazolyl)-3-pyridinemethanamine]
EC50 (aromatase; [3]): 440 nM

Clc1ccc(N(Cc2cccnc2)C2=NCCCS2)cc1 [N--(4-chlorophenyl)-5,6-dihydro-N--(3-pyridylmethyl)-4H--1,3-thiazin-2-amine]
EC50 (aromatase): 72 nM
Mean Steroid Concentration, estriol [1, 4]: 0.04 femtomoles per milligram of protein
Mean Steroid Concentration, estrone [1, 5]: 0.11 femtomoles per milligram of protein
Mean Steroid Concentration, estradiol [1, 6]: 1.54 femtomoles per milligram of protein
Mean Uterine Weight [2, 7]: 193.0 mg

Clc1ccc(N(Cc2cccnc2)C2=NCCO2)cc1 [N--(4-chlorophenyl)-N--(4,5-dihydro-2-oxazolyl)-3-pyridinemethanamine]
EC50 (aromatase): 80 nM

Clc1ccc(N(Cc2cnccn2)C2=NCCS2)cc1 [N--(4-chlorophenyl)-N--(4,5-dihydro-2-thiazolyl)-2-pyrazinemethanamine]
EC50 (aromatase): 3130 nM

Clc1ccc(N(Cc2cncnc2)C2=NCCS2)cc1 [N--(4-chlorophenyl)-N--(4,5-dihydro-2-thiazolyl)-5-pyrimidinemethanamine]
EC50 (aromatase): 610 nM

CC(c1cccnc1)N(C1=NCCS1)c1ccc(Cl)cc1 (stereo not drawn) [N--(4-chlorophenyl)-N--(4,5-dihydro-2-thiazolyl)-α-methyl-3-pyridinemethanamine]
EC50 (aromatase; [3]): 2350 nM

CC1CSC(N(Cc2cccnc2)c2ccc(Cl)cc2)=N1 (stereo not drawn) [N--(4-chlorophenyl)-N--(4,5-dihydro-4-methyl-2-thiazolyl)-3-pyridinemethanamine]
Mean Steroid Concentration, estrone ([1]; Test III, 30 ppm in feed (approx. 3 mg/kg/day), testosterone-treated control 1.02): 1.14 femtomoles per milligram of protein
Mean Steroid Concentration, estradiol ([1]; Test III, 30 ppm in feed (approx. 3 mg/kg/day), testosterone-treated control 1.31): 2.40 femtomoles per milligram of protein
Mean Steroid Concentration, estriol ([1]; Test III, 30 ppm in feed (approx. 3 mg/kg/day), testosterone-treated control 1.32): 1.56 femtomoles per milligram of protein
Mean Steroid Concentration, estrone ([1]; Test III, 300 ppm in feed (approx. 30 mg/kg/day), testosterone-treated control 1.02): 0.62 femtomoles per milligram of protein
Mean Steroid Concentration, estradiol ([1]; Test III, 300 ppm in feed (approx. 30 mg/kg/day), testosterone-treated control 1.31): 0.95 femtomoles per milligram of protein
Mean Steroid Concentration, estriol ([1]; Test III, 300 ppm in feed (approx. 30 mg/kg/day), testosterone-treated control 1.32): 0.37 femtomoles per milligram of protein
Mean Uterine Weight ([2]; Test III, 30 ppm in feed (approx. 3 mg/kg/day), testosterone-treated control 220.0): 225.5 mg
Mean Uterine Weight ([2]; Test III, 300 ppm in feed (approx. 30 mg/kg/day), testosterone-treated control 220.0): 187.6 mg

CC1CSC(N(c2ccc(Cl)cc2)C(C)c2cccnc2)=N1 (stereo not drawn) [N--(4-chlorophenyl)-N--(4,5-dihydro-4-methyl-2-thiazolyl)-α-methyl-3-pyridinemethanamine]
EC50 (aromatase; [3]): 1950 nM

CC(c1ccc(Cl)cc1)N(Cc1cccnc1)C1=NCCS1 (stereo not drawn) [N--[1-(4-chlorophenyl)ethyl]-N--(4,5-dihydro-2-thiazolyl)-3-pyridinemethanamine]
EC50 (aromatase): 48 nM
Mean Steroid Concentration, estriol [1, 4]: 0.04 femtomoles per milligram of protein
Mean Steroid Concentration, estrone [1, 5]: 0.13 femtomoles per milligram of protein
Mean Steroid Concentration, estradiol [1, 6]: 1.01 femtomoles per milligram of protein
Mean Uterine Weight [2, 7]: 185.8 mg
